Measured values: ChEMBL document CHEMBL1138383, “2-Arylidenedihydroindole-3-ones: design, synthesis, and biological activity on bladder carcinoma cell lines” (2007)

Legend:
J82 [1] = test: Effect on viability of J82 cells with FGFR3 K650E mutation at 10 uM after 72 hrs; type: functional, Homo sapiens
[2] = Effect on viability of DAG1 cells with FGFR3 S249C mutation at 10 uM after 72 hrs; type: functional, Homo sapiens
RT-112 [3] = test: Effect on viability of RT112 cells overexpressing wild-type FGFR3 at 10 uM after 72 hrs; type: functional, Homo sapiens
RT-112 [4] = test: Decrease in p-Stat5 antigen expression level in RT112 cells overexpressing wild-type FGFR3 at 10 uM after 6 hrs by flow cytometry relative to control; type: functional, Homo sapiens
[5] = Induction of apoptosis in DAG1 cells with FGFR3 S249C mutation at 10 uM after 48 hrs by flow cytometry; type: functional, Homo sapiens
RT-112 [6] = test: Decrease in p-Pyk2 antigen expression level in RT112 cells overexpressing wild-type FGFR3 at 10 uM after 6 hrs by flow cytometry relative to control; type: functional, Homo sapiens
RT-112 [7] = test: Induction of apoptosis in RT112 cells overexpressing wild-type FGFR3 at 10 uM after 48 hrs by flow cytometry; type: functional, Homo sapiens
J82 [8] = test: Induction of apoptosis in J82 cells with FGFR3 K650E mutation at 10 uM after 48 hrs by flow cytometry; type: functional, Homo sapiens
[9] = Decrease in p-Stat5 antigen expression level in DAG1 cells with FGFR3 S249C mutation at 10 uM after 6 hrs by flow cytometry relative to control; type: functional, cell-based; details: Homo sapiens
[10] = Decrease in p-Pyk2 antigen expression level in DAG1 cells with FGFR3 S249C mutation at 10 uM after 6 hrs by flow cytometry relative to control; type: functional, cell-based; details: Homo sapiens

| SMILES | Activity (J82 [1]) | Activity [2] | Activity (RT-112 [3]) | Activity (RT-112 [4]) | Activity [5] | Activity (RT-112 [6]) | Activity (RT-112 [7]) | Activity (J82 [8]) | Activity [9] | Activity [10] |
| --- | --- | --- | --- | --- | --- | --- | --- | --- | --- | --- |
| COc1cc2c(c(OC)c1)C(=O)/C(=C/c1ncc[nH]1)N2 | 89% | 90% | 92% | – | – | – | – | – | – | – |
| COc1cc2c(c(OC)c1)C(=O)/C(=C/c1ccc(Cl)cc1)N2 | 94% | 99% | 93% | – | – | – | – | – | – | – |
| COc1cc2c(c(OC)c1)C(=O)/C(=C/c1ccccc1F)N2 | 97% | 58% | 48% | 2.5 | 86% | 1.3 | 20% | 3% | 9.5 | 2 |
| CCc1ccc(/C=C2\Nc3cc(OC)cc(OC)c3C2=O)cc1 | 99% | 98% | 97% | – | – | – | – | – | – | – |
| COc1cc2c(c(OC)c1)C(=O)/C(=C/c1c(F)cccc1Cl)N2 | 95% | 91% | 93% | – | – | – | – | – | – | – |
| COc1cc2c(c(OC)c1)C(=O)/C(=C/c1[nH]cnc1C)N2 | 90% | 89% | 92% | – | – | – | – | – | – | – |
